# Test results: patent publication US9428536B2, “Immunostimulatory G, U-containing oligoribonucleotides” (Zoetis Belgium SA, priority 2002, dated 2016)
# System: human PBMC
# Assay: Human PBMC IL-12 p40 secretion, ELISA
# Format: cell-based
# Protocol: Human peripheral blood mononuclear cells (PBMCs) were isolated from healthy donors, plated at 3×10^5 cells/well, stimulated in vitro with various test and control immunostimulatory agents for 16 hours, and then analyzed by enzyme-linked immunosorbent assay (ELISA) using matched antibody pairs from BD-Pharmingen for secreted cytokines IL-12 p40 and TNF-α, performed according to the manufacturer's protocol. Also included were certain negative controls, including medium alone and DOTAP (10 μg/200 μl culture well; “Liposomes”) alone. The control immunostimulatory agents included the imidazoquinolone R-848 (2 μg/ml), lipopolysaccharide (LPS; 1 μg/ml), Pam3Cys (5 μg/ml), poly IC (50 μg/ml), and CpG DNA (50 μg/ml). These are reported ligands for TLR7, TLR4, TLR2, TLR3, and TLR9, respectively. Test immunostimulatory agents included the following RNA molecules, each at 50 μg/ml, with and without DOTAP (10 μg total “with Liposomes” and “without Liposomes”, respectively): GUGUUUAC alone; GUAGGCAC alone; GUGUUUAC in combination with GUAGGCAC; GUAGGA; GAAGGCAC; CUAGGCAC; CUCGGCAC; and CCCCCCCC. These RNA oligonucleotides each contained a phosphorothioate linkage between the penultimate and 3′ terminal nucleoside.
# The experiments described in the preceding example were repeated with varied concentrations of RNA oligonucleotides in order to assess the dose-response behavior of human PBMCs to G,U-containing RNA oligonucleotides of the invention. A total of 10, 3 or 1 μg RNA was added to 10 μg DOTAP and then added to the 200 μl culture wells. After 16 hours IL-12 p40 and TNF-α ELISAs were performed as described in Example 1. […]
# RNA oligomers GUGUGUGU, GUGUGUG, GUGUGU, GUGUG, GUGU, GUG, and GU, with and without DOTAP, were added over a range of concentrations to overnight cultures of human PBMC. Culture supernatants were harvested, and human TNF-α, IL-12 p40, and IFN-α were measured by ELISA using matched antibody pairs from BD-Pharmingen according to the manufacturer's protocol. […]
compound,measurement,setting,value
"CCOCc1nc2c(N)nc3ccccc3c2n1CC(C)(C)O [R-848, 4-amino-α,α-dimethyl-2-ethoxymethyl-1H-imidazo[4,5-c]quinoline-1-ethanol, reference compound]",IL-12 p40 response of human PBMC (in words),"Example 1, FIG. 1, 16 hours, RNA 50 μg/ml with and without DOTAP, R-848 2 μg/ml, LPS 1 μg/ml, Pam3Cys 5 μg/ml, poly IC 50 μg/ml",responsive
same,effect of DOTAP on the amount of IL-12 p40 secreted,"Example 4, FIG. 5, presence versus absence of DOTAP, 16 hour incubation",about the same immunostimultory effect
